The subject of one data set is EL4-OVA tumors. Briefly: Adoptive transfer of OT1 T cells into mice bearing EL4-OVA tumors. The data set is classed as in vivo, mouse. The procedure:
Given the functional fitness of Comp-19 treated CD8^+ T cells in vitro, we, next, sought to determine their antitumor potential upon adoptive transfer into mice bearingEL4-OVA tumors.
EL-4.OVA tumor cells (1×10^6) or B16-F10 melanoma (0.5×10^6 cells) were injected subcutaneously into the left flank of 7-10 weeks old C57BL/6 mice. After 9 days of tumor establishment, ex vivo activated OT-1 T cells at 0.5×10^6 cells/mouse were adoptively transferred intravenously into tumor-bearing recipients.

The test system of a further data set is mTORC1. Briefly: mTORC1 activity in CD8+ T cells: pS6 and p4EBP1 levels (flow cytometry, western blot). Format: cell-based. The source says: Several transcription factors and signaling pathways coordinately support and regulate the metabolic shifting of naïve T cell after activation. Downstream of co-stimulation and PI3K-AKT signaling, mammalian target of Rapamycin (mTOR) kinase pathway helps in integrating multiple signals, plays a significant role for cell cycle entry and coordinates early anabolic changes that occur upon T cell activation mTOR complex 1 (mTORC1) promote aerobic glycolysis and support effector T cell proliferation, growth, and cytokine production. Translation repressor protein 4E-BP1 inhibits cap-dependent translation by binding to the translation initiation factor eIF4E. Phosphorylation of 4E-BP1 by mTORC1 disrupts this interaction and results in activation of cap-dependent translation. On the contrary, phosphorylation of S6 ribosomal protein correlates with an increase in translation of mRNA transcripts that contain an oligopyrimidine tract in their 5′ untranslated regions. Activation of mTORC1 increases protein translation via direct phosphorylation of 4E-BP1 and p70S6 kinase. Since Comp-19 was proposed as mTORC1 activator, next we sought to check expression level ofpS6 and p4EBP1 level inside CD8^+ T cells activated in presence/absence of Comp-19. […] CD8^+ T cells treated with Comp-19 (FIG. 3A-C).
(§1) Purified naïve CD3^+ T cells were activated either in presence of Comp 19 ([…]) or vehicle (DMSO) with plate-bound anti-CD3 ([…]) and anti-CD28 ([…]) for 72 h in RPMI-1640 medium containing 10% FBS, 50 µM R-ME, 50 U/mL penicillin and […] streptomycin and 100 IUmL^−1 rIL-2.
pS6 Staining: Intracellular phospho ribosomal protein S6 (pS6) were stained using Transcription factor Phospho Buffer set. Single cell suspension was prepared and cells were washed with 1×PBS. […] Finally, cells were washed, dissolved in PBS and analysed by flow cytometry.
Cell lysates from 4×10^6 cells per condition were prepared in RIPA buffer containing protease inhibitor cocktail. Protein concentrations were determined with a serial dilution standard curve of Bradford assay. […]
In general terms: Flow cytometry measures light scatter and fluorescence of single cells or particles in a stream.

In data set [1] the test system is CD8^+ T cells. Description: Glucose uptake assay (2NBDG) in activated CD8+ T cells. Conditions: naïve T cells activated in presence of compound; 2NBDG (FIG. 2A). Format: cell-based. The source says: (§2) Distinct T cell states require specific metabolic programs compatible to their functional demands. The transition between various T cell states is accompanied by active rewiring of cellular metabolism and epigenetic landscape. Oxidative phosphorylation is the main biochemical pathway that drives metabolism of naïve T cell. Upon activation, naïve T cells rapidly reprogram their metabolic networks to comply with the demands of robust clonal expansion and epigenetic remodeling. So, TCR activation and co-stimulation initiate a set of signaling cascades that collectively license a T cell to exit quiescence. Stimulation of the TCR promotes signaling through the ERK/MAPK pathways and calcium flux, activation of the PI3K-AKT-mTOR axis which subsequently resulting in T cell activation. This conversion to an activated effector T cell is marked by enhanced glucose uptake, engagement of aerobic glycolysis, increased oxidative phosphorylation. So, we assessed glucose uptake level by activated CD8^+ T cells using fluorescent labeled deoxy-glucose analogue, 2NBDG. […]
Glucose uptake assay: Glucose uptake by activated T cells was evaluated using fluorescent labeled deoxy-glucose analogue, 2NBDG. […]

The nature of a further data set: Plasma stability assay. The data set is classed as in vitro ADME. Conditions: human, 37° C., 120 mins. The procedure: 1 mM Stock of test compound was prepared from 10 mM initial stock solution of compounds by diluting 10 μL of 10 mM stock with 90 μL of DMSO. Then 10 μL of 1 mM stock was diluted with 90 μL of DMSO to give 100 μM concentration. The frozen plasma was thawed at room temperature and centrifuged at 1400 rpm at 4° C., for 15 minutes. Approximately 90% of the clear supernatant fraction was transferred to a separate tube and was used for the assay. Final working stock of 1 μM was prepared by diluting 3 μL of 100 μM with 297 μL of plasma. Plasma containing the test compound was incubated for 120 mins at 37° C. in shaker with 500 rpm. 50 μL of aliquot of sample at 0, 15, 30, 60 and 120 minutes were precipitated with 150 μL of acetonitrile containing internal standard and centrifuged at 4000 rpm at 4° C. for 20 minutes. 120 μL of supernatant was diluted with 120 μL of water and analyzed by LC-MS/MS.

Data set [2] can be described thus: Lipophilicity assay (n-octanol / phosphate buffer). The data set is classed as physicochemical. The note with it: pH 7.4, 1-octanol/10 mM sodium phosphate buffer, room temperature; criteria: <0 low, 0-1 moderate, >2 high lipophilicity. The procedure: 1.56 g NaH2PO4O·2H2O was dissolved in 0.5 L water in a 1 L beaker. After adjusting pH to 7.4 using NaOH solution, the volume was made up to 1 L. Equal volumes of sodium phosphate buffer (10 mM, pH 7.4) and n-octanol were added to a separation funnel and mixed thoroughly by shaking and inverting the funnel several times. The two layers were allowed to separate for overnight and then dispensed in two separate glass bottles. 10 mM stock solution was prepared in 100% DMSO and stored at 4° C. 495 μL of organic phase (1-octanol) was added to each well of a 2 mL deep well plate, followed by 495 μL of buffer and 10 μL of test substance was added. The plate was incubated for 3 hr at room temperature on a plate shaker at 500 rpm. After incubation, the samples were allowed to equilibrate for 20 min and then centrifuged at 4000 rpm for 30 min for complete phase separation and analysed by LC-UV.
Log D=Log (area of octanol/area of buffer)

Data set [3] has as its system CD8^+ T cells. Briefly: Initial small molecule screening: intracellular cytokine staining of CD8+ T cells activated with each small molecule. Format: cell-based, mouse.
Source text: To select the small molecule capable of inducing IFN-γ production in CD8^+ T cells, […] CD3^+ sorted naïve T cells were activated with each small molecule for 72 hrs followed by an intracellular cytokine staining.
CD3^+ T cells were isolated from human peripheral blood by density-gradient (Ficoll gradient) centrifugation followed by a negative selection using Dynabeads Untouched Human T Cells Kit, resulting in a typically >90% pure CD3^+ T cell population.
as §1
Measurement of cytokine production: To assess IFN-γ and TNF-α secretion by intracellular cytokine staining, cells (0.2×10^6) were treated for 4 hours with restimulation cocktail containing phorbolmyristate acetate (50 ng ml^−1) and ionomycin (500 ng ml^−1), brefeldin A (to block anterograde protein transport). Then cells were stained for surface markers and simultaneously labeled with Live/Dead Yellow Fluorescent Dye for 20 min at 4° C. Next cells were washed with PBS, fixed for 20 min at 4° C. with fixation/permeabilization solution, washed with permeabilization buffer, finally stained for 30 min with anti-IFN-γ and anti-TNF-α mAb in dark at 4° C., washed with PBS and analyzed.

In data set [4] the test system is CD8^+ T cells. Description: Effector cytokine (IFN-γ, TNF-α) production by activated CD8+ T cells. The data set is classed as cell-based. Conditions: naïve T cells activated in presence of compound (FIG. 2B-E).
Source text: as §2, with “Stimulation of the TCR promotes signaling through the ERK/MAPK pathways and calcium flux, activation of the PI3K-AKT-mTOR axis which subsequently resulting in T cell activation. This conversion to an activated effector T cell is marked by enhanced glucose uptake, engagement of aerobic glycolysis, increased oxidative phosphorylation.” left out
(§3) Measurement of cytokine production: To assess IFN-γ and TNF-α secretion by intracellular cytokine staining, cells (0.2×10^6) were treated for 4 hours with restimulation cocktail containing phorbolmyristate acetate (50 ng ml^−1) and ionomycin (500 ng ml^−1), brefeldin A (to block anterograde protein transport). […] Next cells were washed with PBS, fixed for 20 min at 4° C. with fixation/permeabilization solution, washed with permeabilization buffer, finally stained for 30 min with anti-IFN-γ and anti-TNF-α mAb in dark at 4° C., washed with PBS and analyzed.

Data set [5] deals with Human naïve CD8^+ T cells. Description: EC50 for IFNγ production in human naïve CD8+ T cells. The data set is classed as cell-based. Conditions: 72 hrs, doses 500 pM to 50 μM, N=3 for each dose. The protocol: Human naïve CD8^+ T cells were sorted from PBMC and activated in presence of Comp 19 in the different doses (500 pM, 1 nM, 100 nM, 500 nM, 1 μM, 5 μM, 10 μM, 50 μM). After 72 hrs, activated CD8+ T cells were restimulated and stained for IFNγ production. Percent of CD8+ T cell producing IFNγ in the previously mentioned doses of Comp 19 was normalized to a vehicle control (DMSO) treated group. The optimum dosage of Comp 19 for inducing effector cytokine (IFNγ) production from CD8^+ T cells is 10 μM. […] (N=3 for each dose of Comp 19).
Human peripheral blood mononuclear cells (PBMC) were obtained from fully anonymized whole blood bags (age & sex related information were not provided) collected from healthy volunteer blood donors at NRS Medical College & Hospital, Kolkata, India. […]
as §3

Data set [6] can be described thus: Metabolic stability using human liver microsomes (HLM). The note with it: pH 7.4, read-out: % QH (Well stirred model). Format: in vitro ADME. The procedure:
1 mM stock solution of test compound was prepared in DMSO and diluted with Acetonitrile:Water (1:1) to get a 100 μM working concentration. 100 mL of Milli Q water was added to K2HPO4 (1.398 g) and KH2PO4 (0.27 g) to get final pH 7.4 solution of potassium phosphate buffer. […] The above mixture was pre incubated for 15 minutes at 37° C. After pre incubation, 32.5 μL of the mixture was added to 17.5 μL of buffer, this was incubated for 60 minutes at 37° C. [60 min Without Cofactor (NADPH)]. 16.25 μL of the pre incubated mixture and 8.75 μL of cofactor was added to 150 μL of acetonitrile containing internal standard [0 min Sample]. 62 μL of cofactor was added to remaining pre incubation mixture [Incubation mixture]. 25 μL of incubation mixture at 0, 5, 15, 30, 60 min and 60 min without cofactor were precipitated with 150 μL of acetonitrile containing internal standard, vortexed and centrifuged at 4000 rpm at 4° C. for 20 minutes. 120 μL of supernatant was diluted with 120 μL of water and analyzed by LC-MS/MS [sample preparation].
In general terms: Liver microsomes are vesicles of endoplasmic reticulum, rich in cytochrome P450 enzymes.

[7] abbreviates: OT1 T cells (0.5×10^6 cells/mouse) activated in presence of 10 μM ml^−1 compound.
Setting [8] is: inhibitory receptor (FIG. 4F,4G).
Where [9] appears, read: 10 μM, 72 hrs, compared to vehicle control/other small molecules treated group (FIG. 1A-B).

The share remaining is what is left of the initial amount, in per cent. The low end stands for more turnover, the high end for less turnover. The logD is lipophilicity at a set pH, counting ionised and neutral species. Lower therefore signals a more hydrophilic compound. By EC50 is commonly meant the concentration giving half of the maximal effect. Higher therefore signals weaker potency. For `COc1ccc(-c2nc3c(NS(=O)(=O)c4ccc(C)cc4)ncnc3n2C)cc1` [Compound 19, N-(8-(4-methoxyphenyl)-9-methyl-9H-purin-6-yl)-4-methylbenzenesulfonamide], the “persistence of CD8+Vβ5.1+ OT1 T cells” value in the data set with EL4-OVA tumors (FIG. 4B) was “improved persistence”. For the same compound, in the data set on EL4-OVA tumors (setting [7]), the “survival of tumor-bearing mice” value is reported as “markedly enhanced the survival” and the tumor growth control result is reported as “could efficiently control tumor growth”. In the data set with EL4-OVA tumors (setting [8]), the “CD38 expression on CD8+Vβ5.1+ OT1 T cells” value is “reduced expression”, the “PD1 expression on CD8+Vβ5.1+ OT1 T cells” value is “reduced expression” and the “TIM3 expression on CD8+Vβ5.1+ OT1 T cells” value was “reduced expression”. Further, in the data set on EL4-OVA tumors (tumor-bearing host, vs mice that received DMSO treated cells), the “number of circulating CD8^+Vβ5.1^+ T cells” value is on record as “higher number”. Moreover, the mTORC1 activation entry with mTORC1 (conclusion from pS6 and 4EBP1 results in CD8^+ T cells) is listed as “potent mTOR-Cl activator”. For the same compound, the “4EBP1 (p4EBP1) expression” value with mTORC1 (downstream substrate of mTORC1 (FIG. 3D)) was “significant high expression”. Further, the “pS6 level inside CD8^+ T cells” value with mTORC1 (flow cytometry and western blot (FIG. 3A-C)) was “marked increase”. The glucose uptake result with CD8^+ T cells [1] is listed as “promoted glucose uptake”. In “Plasma stability assay”, this compound came in with an amount remaining at 2 h, 1 µM of 85.8%. The logD in data set [2] came out at 0.96. In addition, in the data set on CD8^+ T cells [3] (setting [9]), the “IFN-γ production from CD8^+ T cells” value is listed as “highest” and the “TNF-α production from CD8^+ T cells” value is “highest”. For the same compound, the “improving effector cytokine production from CD8^+ T cells (ranking among the small molecules)” value in the data set with CD8^+ T cells [3] (72 hrs activation) was “most promising”. In the data set on CD8^+ T cells [4], the “IFN-γ production level from CD8^+ T cell” value is recorded as “significant increase” and the “TNF-α production level from CD8^+ T cell” value is listed as “significant increase”. In addition, the “optimum dosage for inducing effector cytokine (IFNγ) production from CD8^+ T cells” value in [5] came out at 10 µM. The EC50 in data set [5] (Homo sapiens, T-cell, normalized to vehicle (DMSO)) was found to be 4.09 µM. Besides, in data set [6], the hepatic extraction ratio is 0.0077.
For `CCc1ccc(S(=O)(=O)Nc2ncnc3c2nc(-c2ccc(OC)cc2)n3C)cc1` [Compound 22, 4-ethyl-N-(8-(4-methoxyphenyl)-9-methyl-9H-purin-6-yl)benzenesulfonamide], the amount remaining at 2 h, 1 µM in the data set “Plasma stability assay” was determined as 3.9%. The compound further returned a logD in data set [2] of 4.32. Besides, in data set [6], the hepatic extraction ratio worked out at 0.318.
Compound `COCCc1ccc(OCC(O)CNC(C)C)cc1` (centres unmarked) [Metroprolol, reference compound] yielded a logD in [2] of -0.34.
`CC(C)[N+](C)(CCOC(=O)C1c2ccccc2Oc2ccccc21)C(C)C` [Propantheline, reference compound] came in with a fraction remaining at 2 h, 1 µM in “Plasma stability assay” of 0.33%.

The values above are taken from patent publication US20260317328A1, “SMALL MOLECULES FOR ADOPTIVE T-CELL THERAPY (ACT) THROUGH ACTIVATION OF THE mTOR SIGNALLING PATHWAY, PROCESS FOR PREPARATION THEREOF” (COUNCIL OF SCIENTIFIC & INDUSTRIAL RESEARCH, priority 2023, published 2026).
